Reference: patent US20230414599A1, “NICOTINAMIDE, NICOTINAMIDE PRECURSORS AND NICOTINAMIDE METABOLITES AND COMPOSITIONS THEREOF FOR REDUCING THE TIME TO RESOLUTION OF SYMPTOMS IN PATIENTS WITH COVID-19 AND OTHER VIRAL INFECTIONS” (CONARIS RESEARCH INSTITUTE AG, priority 2020, published 2023)

System: COVID-19
Experiment: Pilot phase of the COVit-1 dietary intervention trial (n = 16 outpatients)
Type: in vivo
[1] = 1,000 mg/day immediate-release, n = 8, up to 21 days after positive SARS-CoV-2 test
[2] = 1,000 mg/day, n = 8, up to 21 days after positive test
[3] = only patients with symptoms persisting at week 4 queried, n = 3

In the case of NC(=O)c1cccnc1 [Nicotinamide, nicotinamide], the “Proportion of subjects still suffering from at least one COVID-19 symptom at or before day 21 after first testing positive” value (1,000 mg nicotinamide per day for 28 days, n = 8) is reported as 50%, the “Patients with anorexia/loss of appetite at week 2” value [1] is reported as 0 and the “Patients with arthralgia at week 2” value [1] is reported as 0. The “Patients with chest pain at week 2” value [1] was 0, the “Patients with cough at week 2” value [1] was 2 and the “Patients with diarrhoea at week 2” value [1] was 1. The “Patients with dyspnoea/shortness of breath at week 2” value [1] was 2, the “Patients with fatigue at week 2” value [1] was 2 and the “Patients with fever (total) at week 2” value [1] was 1. For the same compound, the “Patients with fever <38° C. at week 2” value [1] was 1, the “Patients with fever >38° C. at week 2” value [1] was 1 and the “Patients with headache at week 2” value [1] was 1. For the same compound, the “Patients with impaired sense of smell at week 2” value [1] was 1, the “Patients with impaired sense of taste at week 2” value [1] was 1 and the “Patients with myalgia at week 2” value [1] was 0. The “Patients with reduced physical performance at week 2” value [1] was 2, the “Patients with rhinorrhoea at week 2” value [1] was 1 and the “Patients with sore throat/pharyngalgia at week 2” value [1] was 0. For the same compound, the “Patients with sputum production at week 2” value [1] was 1, the “Patients with vomiting at week 2” value [1] was 0 and the “Patients requiring hospitalisation before week 2” value (1,000 mg/day, n = 8) was “no patient”. The “Patients with persisting symptoms at week 4” value (1,000 mg/day, n = 8) was 3, the “Symptom-free patients at week 4” value (1,000 mg/day, n = 8) was 5 and the “Patients with persisting symptoms at week 2” value [2] was 4. The “Symptom-free patients at week 2” value [2] was 4, the “Patients with persisting symptoms at week 6” value [3] was 2 and the “Symptom-free patients at week 6” value [3] was 1.
